From patent publication US7695971B2, “Use of non-absorbable fat in determining dietary fat absorption” (Children's Hospital Medical Center, priority 2003, dated 2010)

Columns and labels:
[1] = Fat absorption by sucrose behenate marker method, mice (Example 1)
Experimental: (§1) These two diets further have the following composition by weight: about 16% fat, 45% non-fat dry milk, and 39% sucrose, providing 30:15:55 fat:protein:carbohydrate energy %. Non-fat dry milk comprised 60% carbohydrate and 40% protein by weight. The fat composition (% by weight) is given for each diet as listed below. […] Aliquots of approximately 10 microliters of each fat blend are set aside and later analyzed for fatty acid analysis. The fat blends are added to non-fat dry milk and sucrose and mixed with an electric mixer for 5 minutes. The prepared diets are placed in a capped glass bottle and stored at 4° C. until used.
(§2) The feeding and fecal collection regimen for rodents includes two days of test diet and three days of fecal collection. Prior to the study, the animals eat commercial chow ad libitum. Test diets, also fed ad libitum, replace chow on days 0 and 1, and chow is returned to the animals on day 2. Fecal collections are made on days 1, 2, and 3. The feeding and feces collection regimen is illustrated in the following table A:
(§3) In general sample sizes of 10-20 milligrams provide a 5 to 10-fold excess of behenate in terms of the sensitivity of the gas chromatograph. The weighed fecal sample is ground into small particles with a spatula and placed in a 20 mL vial for saponification, methylation, and extraction. The method for saponification and methylation of fatty acids for gas chromatographic analysis can be that reported by Mecalfe (Metcalfe, L D et al. (1966). Anal. Chem. 38: 514-515). Four mL of 0.5N methanolic sodium hydroxide are added to the vial, which is then heated in a water bath at ˜80° C. for 5 mins. After a brief cooling period, 3 mL of BF3 in methanol (14% borontrifluoride and 86% methanol) are added to methylate the sample. After another five minutes of heating in the waterbath, the sample vial is allowed to cool to allow handling. Two mL of a saturated solution of sodium chloride and 10 mL of hexane are added to the vial. The samples are then mixed with a vortex mixer for one minute. Centrifugation can be used (2500 rpm at 1 min) to expedite the process of separation into two layers. The hexane fraction is transferred by pipette into a 20 mL vial that contains ˜10 mg of sodium sulfate to dry the sample. The hexane solution is removed for gas chromatograph analysis. An injection volume of 1 μL of the 10 mL of hexane is analyzed.
Samples are analyzed with a gas chromatograph (GC) such as a Shimadzu GC-17A equipped with autosampler and autoinjector. Analysis of fatty acid methyl esters is then based on areas calculated with Shimadzu Class VP 4.3 software. An example of an appropriate column is one that can be obtained from J&W Scientific, DB-23 (123-2332): 30 m (length), I.D. (mm) 0.32 widebore, film thickness of […], although any suitable column can be substituted. Fatty acid identification is made by the use of comparison of retention times with those of authenticated standards. The conditions for the GC analysis in the present example are: Column temperature ramping by holding at 120° C. for one minute followed by an increase of 5° C./min from 120-240° C. The temperature of the injector and flame ionization detector is 250° C. A split (8:1) injection mode is used. The carrier gas is helium with a column flow rate of 2.5 mL/min. Under these conditions, the retention time of methyl behenate is 18.7 min.
The absorption of fatty acids is calculated with formula II:
[formula] • where Fd=sum of the masses of all dietary fatty acids (or that of an individual fatty acid) other than behenic acid, • Bd=mass of dietary behenic acid, • Ff=sum of the mass of all fecal fatty acids (or that of an individual fatty acid) other than behenic acid, and • Bf=mass of fecal behenic acid.

[2] = Fat absorption by sucrose behenate marker method, rats (Example 2)
Experimental: as §1, §2, §3
Samples are analyzed with a gas chromatograph (GC) such as a Shimadzu GC-17A equipped with autosampler and autoinjector. Analysis of fatty acid methyl esters is then based on areas calculated with Shimadzu Class VP 4.3 software. […]
The absorption of fatty acids is calculated with formula II: […]

## CCCCCCCCCCCCCCCCCC(=O)O [Stearic acid]
[1]; male, C57B1/6, mouse, in vivo
  Percent in Feces (Mean ± SEM): 5.28 ± 0.3%
  absorption of individual fatty acid: 77.3±2.1%
[2]; rat, in vivo
  absorption of individual fatty acid from safflower oil: 75.9±0.3%

## CCCCC/C=C\C/C=C\CCCCCCCC(=O)O [linoleic acid]
[1]; male, C57B1/6, mouse, in vivo
  Percent in Feces (Mean ± SEM): 27.7 ± .6%
[1]; mouse, in vivo
  absorption of individual fatty acid from safflower oil (in words): nearly complete
[2]; rat, in vivo
  absorption of individual fatty acid from safflower oil (in words): essentially complete

## CCCCCCCCCCCCCCCC(=O)O [Palmitic acid]
[1]; male, C57B1/6, mouse, in vivo
  Percent in Feces (Mean ± SEM): 18.3 ± 0.5%
[2]; rat, in vivo
  absorption of individual fatty acid from safflower oil: 90.1±0.3%

## CCCCCCCC/C=C\CCCCCCCC(=O)O [oleic]
[1]; fecal samples from mice ingesting Safflower Oil and Olestra Diet
  Percent in Feces (Mean ± SEM): 24.7 ± 01.0%
[1]; mice, Safflower Oil Diet
  absorption of individual fatty acid from safflower oil (in words): nearly complete
[2]; rats, fecal collections of days 2 and 3
  absorption of individual fatty acid from safflower oil: 90.9±0.5%

## CCCCCCCCCCCCCCCCCCCCCC(=O)O [behenic acid, reference compound]
[1]; mice fed Safflower Oil Diet
  behenic acid in feces, of the total fatty acids: 33.5-66.4%
[1]; mice fed Safflower Oil and Olestra Diet
  behenic acid in feces, of the fatty acids: 12.5-19.3%
